In ChEMBL document CHEMBL3507680, “University of Dundee, Gates Library screen for HepG2 cell viability” one finds cytotoxicity data, which are given here for 96 compounds.

Each structure is given as a SMILES string.

This series is described as follows: Human HepG2 cell viability assay in 384 well format. Conditions: HepG2 cells, read-out: Inhibition. Format: toxicity, cell-based. Also on record: dose 125 nL, time 70.5 hour; cytotoxicity at 70.5 h: concentration not given beside the values.

Turning to `O=C(Nc1ccccc1C(=O)NCCN1CCOCC1)c1ccco1`, the cytotoxicity at 70.5 h is 24.9%.

With `CN(C)C(=O)N1CCN(Cc2ccc3occc3c2)[C@H]2CS(=O)(=O)C[C@H]21`, the cytotoxicity at 70.5 h is -3.65%.

As to `O=C(c1ccc(S(=O)(=O)N2CCSCC2)cc1)N1CCC(O)C1` (stereo unspecified), the cytotoxicity at 70.5 h was -17.3%.

For the compound `Cc1nnc(CNC(=O)CC2CCc3ccccc32)o1` (stereo unspecified), the cytotoxicity at 70.5 h was found to be 25.8%.

In the case of `Cc1nc2c(c(NC3CCN(Cc4ccccc4)CC3)n1)CCNCC2`, the cytotoxicity at 70.5 h was determined as 0.337%.

With `Cc1ncccc1OC1(C(=O)NCc2noc(C(C)C)n2)CCNCC1`, the cytotoxicity at 70.5 h is -5.62%.

In the case of `CCCNC(=O)N1CCC(c2nnc(Cn3cccn3)n2C2CC2)CC1`, the cytotoxicity at 70.5 h was -10.5%.

Take `CCOC(=O)CC(C)NC(=O)c1cn(Cc2ccccc2F)nn1` (stereo unspecified): the cytotoxicity at 70.5 h was -1.02%.

Regarding `Cn1cc(C(=O)N2CC[C@@]3(O)CCN(C4CCCCC4)C[C@H]3C2)cn1`, the cytotoxicity at 70.5 h was -2.94%.

Turning to `CC(C)c1noc(C(C)Nc2nccc(CCC(F)(F)F)n2)n1` (stereo unspecified), the cytotoxicity at 70.5 h is -10.8%.

As for `Cc1n[nH]c(C)c1CN1CCC(c2cc(C(C)C)n[nH]2)CC1`, the cytotoxicity at 70.5 h stood at 1.2%.

As to `Cc1nn(C)c2nc(N(C)CC3CCN(CC(C)C)C3)sc12` (stereo unspecified), the cytotoxicity at 70.5 h was 1.29%.

For the compound `Cn1cc(-c2cc(C(=O)N3CCOCC3)c3ccc(F)cc3n2)cn1`, the cytotoxicity at 70.5 h amounted to 24.6%.

Take `CN(C)CCN(C)c1nc(CCc2ccccc2)nc2c1cnn2C`: the cytotoxicity at 70.5 h was -1.09%.

Regarding `COc1cc(Cl)cc(C(=O)N2CCC3(CC2)CNC(=O)C3)c1`, the cytotoxicity at 70.5 h is -15.2%.

With `COc1ccc(C)cc1C(C(=O)O)N1CCN(Cc2ccccn2)CC1` (stereo unspecified), the cytotoxicity at 70.5 h is 3.54%.

As for `Cc1nc(S(=O)(=O)N2CCc3[nH]nc(CCC(C)C)c3C2)cn1C`, the cytotoxicity at 70.5 h is -6.22%.

As for `CCc1ccccc1OC1CN(C(=O)CN(C)Cc2ccncc2)C1`, the cytotoxicity at 70.5 h was -8.04%.

Regarding `O=C1CC2(CCN(Cc3ccoc3)CC2)CN1Cc1cc(F)cc(F)c1`, the cytotoxicity at 70.5 h is -6.12%.

Take `COCC[C@]1(O)CCN(C(=O)c2cnn(C)c2)C[C@H]1C`: the cytotoxicity at 70.5 h was -0.906%.

`C[C@H](c1ccc(F)cc1)n1c(C2CCC2)n[nH]c1=O`: the cytotoxicity at 70.5 h was -12.6%.

Consider `Cc1cc(CN2CCCC2)cc(Oc2ccc3c(c2)CC(CN)O3)c1` (stereo unspecified), for which the cytotoxicity at 70.5 h is -11.7%.

Consider `Cc1cnccc1-n1nc(C(C)C)nc1CS(C)(=O)=O`, for which the cytotoxicity at 70.5 h was -9.46%.

Take `COc1nccc(N2CC[C@@H](N3CCCCCC3)[C@H](O)C2)c1C#N`: the cytotoxicity at 70.5 h is -11.1%.

As to `CC(C)CCn1cc(C(C(=O)O)N2CCC(N3CCSCC3)CC2)cn1` (stereo unspecified), the cytotoxicity at 70.5 h amounted to 3.77%.

Turning to `CCc1cc(N(C)Cc2c(C)nn(C)c2C)n2nccc2n1`, the cytotoxicity at 70.5 h is -2.89%.

Turning to `Cc1cc(C)c(C(=O)N2CCn3nc(C(=O)NCCN(C)C)cc3C2)[nH]1`, the cytotoxicity at 70.5 h is -3.17%.

In the case of `CCCc1nnc(N2CC[C@@](O)(C3CCOCC3)[C@H](C)C2)s1`, the cytotoxicity at 70.5 h turned out to be 3.18%.

On to `CC(c1ccon1)N(C)C(=O)C1CCN(CC(N)=O)CC1` (stereo unspecified), for which the cytotoxicity at 70.5 h was 18%.

Turning to `Cc1nc(CN)cc(NCc2ccccc2-n2cncn2)n1`, the cytotoxicity at 70.5 h worked out at 25%.

In the case of `O=C1O[C@@H]2CN(c3ncccn3)C[C@@H]2N1CCCc1ccc(F)cc1`, the cytotoxicity at 70.5 h was -7.46%.

`Cc1ccc(C)c(OCCN(C)C(=O)C2CCCN2C(N)=O)c1C` (stereo unspecified): the cytotoxicity at 70.5 h was -2.41%.

For the compound `CC(=O)N1CCc2c(nc(N(C)C)nc2NCCc2cccs2)C1`, the cytotoxicity at 70.5 h is -5.76%.

Turning to `CC(C)NC(=O)CN1CCN(CC2CCOc3ccccc3C2)CC1` (stereo unspecified), the cytotoxicity at 70.5 h is -7.34%.

For `CN1CC(c2ccccc2)CC12CCN(C(=O)c1ccc(Cl)cn1)CC2` (stereo unspecified), the cytotoxicity at 70.5 h was 19.6%.

For `COc1ccc2cc(-c3n[nH]cc3CN3CCSCC3)ccc2c1`, the cytotoxicity at 70.5 h came out at 0.45%.

Take `Cc1cc(C(=O)N(C)CCCn2cccn2)nc(N)n1`: the cytotoxicity at 70.5 h is -5.11%.

With `COc1ccccc1N1CCN(C(=O)Cn2nccc2C)CC1(C)C`, the cytotoxicity at 70.5 h is -3.69%.

In the case of `Cn1cc(CN2CC[C@@H]3[C@@H](CCC(=O)N3CC3CCNCC3)C2)cn1`, the cytotoxicity at 70.5 h was determined as 1.94%.

As for `COC(=O)c1ccc(N2CCN(C(=O)c3ccc(=O)n(C)c3)CC2)cc1`, the cytotoxicity at 70.5 h is -5.8%.

On to `O=C(O)CC1COCCN1CCCc1ccccc1` (stereo unspecified), for which the cytotoxicity at 70.5 h is -11.2%.

Take `CSc1ccccc1C(=O)NCc1cc2n(n1)CCCN(CC(C)C)C2`: the cytotoxicity at 70.5 h was 22.5%.

For the compound `Cc1nc2sccn2c1C(=O)N1CCc2[nH]cnc2C1`, the cytotoxicity at 70.5 h was found to be 10.2%.

For `CCn1ncnc1C(C)NC(=O)C1CCN(Cc2ccco2)CC1` (stereo unspecified), the cytotoxicity at 70.5 h was -0.537%.

Regarding `O=C1CCCN1CCC1CCN(C2CCC3(CCNCC3)CC2)CC1`, the cytotoxicity at 70.5 h is -6.34%.

For `CCC[C@H]1CN(c2nc(CO)cs2)C[C@@H]1NC(=O)C1(COC)CC1`, the cytotoxicity at 70.5 h stood at 4.28%.

As to `CC(C)c1noc(CN(C)C(=O)c2ccccc2-c2nc[nH]n2)n1`, the cytotoxicity at 70.5 h worked out at 6.97%.

Turning to `CN(Cc1noc2c1CCCC2)C(=O)Cn1cnc2ccccc2c1=O`, the cytotoxicity at 70.5 h is -9.78%.

For `Cc1cc(C)c(C(=O)N2CCC3(CCCNC3)C2)cc1C` (stereo unspecified), the cytotoxicity at 70.5 h worked out at 25.6%.

As to `c1cncc(-n2cnnc2CCCN2CCOCC2)c1`, the cytotoxicity at 70.5 h is 1.35%.

In the case of `CCOCCc1nc(Cc2ccccc2)n[nH]1`, the cytotoxicity at 70.5 h was -14.4%.

For `CC(C)=CCC1(CO)CCCN(S(=O)(=O)N2CCCC2)C1` (stereo unspecified), the cytotoxicity at 70.5 h was -14.7%.

As for `CC(C)N1CC(NC(=O)c2ccc(Cl)s2)CC1=O` (stereo unspecified), the cytotoxicity at 70.5 h was -6.6%.

On to `CCN1CCCC(c2c(-c3ccccc3)ncn2CCc2c[nH]cn2)C1` (stereo unspecified), for which the cytotoxicity at 70.5 h is -11.9%.

`O=S1(=O)CCC(n2nc(COc3ccccc3)nc2-c2cnccn2)C1` (stereo unspecified): the cytotoxicity at 70.5 h was -1.94%.

For the compound `CCCOc1ccccc1NCC(=O)Nc1ccc(CC)cc1`, the cytotoxicity at 70.5 h was -6.36%.

As for `COc1ccc(C(=O)N2C[C@@H](C(=O)O)[C@H](c3cccc(F)c3)C2)c(O)c1`, the cytotoxicity at 70.5 h was 5.73%.

As for `Cc1ccc(CN2CC3(CCNCC3)CCC2=O)c(F)c1F`, the cytotoxicity at 70.5 h is -0.751%.

As to `CN(C)CC1(O)CCN(C(=O)c2cnc(-c3ccccn3)nc2)C1` (stereo unspecified), the cytotoxicity at 70.5 h turned out to be 15.3%.

On to `O=C(CCCn1cncn1)N1CCC2(CCCNC2=O)C1` (stereo unspecified), for which the cytotoxicity at 70.5 h stood at 0.299%.

On to `CCCn1ccnc1CN1C[C@@H](NC(C)=O)[C@H](c2ccc(C)cc2)C1`, for which the cytotoxicity at 70.5 h was -0.633%.

On to `Cc1cccnc1CN(C)c1ncnc2[nH]ccc12`, for which the cytotoxicity at 70.5 h is -6.05%.

In the case of `Cc1cc(S(=O)(=O)NCC2CNCCOC2)c(C)cc1Cl` (stereo unspecified), the cytotoxicity at 70.5 h is 1.99%.

For `O=C(CN1CC(c2ccccc2)CC1=O)N1CCN(c2nccs2)CC1` (stereo unspecified), the cytotoxicity at 70.5 h is -6.92%.

In the case of `c1ccc2sc(N3CCCN(c4ncnc5c4CCNC5)CC3)nc2c1`, the cytotoxicity at 70.5 h was -7.26%.

Turning to `CCc1cc(N2CCC(NC3CCOCC3)CC2)nc(N(C)C)n1`, the cytotoxicity at 70.5 h stood at 25.7%.

As to `Cc1ccnc(N2CCC(=O)N(Cc3ccc(F)cc3)C(C(C)C)C2)n1` (stereo unspecified), the cytotoxicity at 70.5 h is -9.2%.

In the case of `COc1cccc(OCC2CCCN(c3cc(C(N)=O)ccn3)C2)c1` (stereo unspecified), the cytotoxicity at 70.5 h was -11.8%.

Regarding `CC(C)c1nc(CN(C)C(=O)c2cn3ccsc3n2)cs1`, the cytotoxicity at 70.5 h turned out to be 2.2%.

As to `O=C1N(Cc2ccc(F)c(F)c2)CCCC1(O)CNCc1ccccn1` (stereo unspecified), the cytotoxicity at 70.5 h was -4.31%.

For `N#Cc1ccccc1C(=O)N1C[C@H]2CC[C@@H]1CN(Cc1ccccc1)C2`, the cytotoxicity at 70.5 h was -13.1%.

Turning to `CC(C)=CCN1CCN(C(=O)COc2ccccc2)[C@H]2CS(=O)(=O)C[C@H]21`, the cytotoxicity at 70.5 h was determined as 1.61%.

Consider `Cn1ncc2c(NCC(=O)N3CCNCC3)nc(C(C)(C)C)nc21`, for which the cytotoxicity at 70.5 h is -1.24%.

`Cc1ccc(CN2CCC(n3cc(C(O)c4ccccc4)nn3)CC2)o1` (stereo unspecified): the cytotoxicity at 70.5 h was -5.94%.

With `Cc1[nH]ccc1C(=O)N1CCC2(CC1)c1nc[nH]c1CCN2CC(C)C`, the cytotoxicity at 70.5 h was -8.19%.

Regarding `O=C(CCn1cc(Cl)cn1)N1CCN(CC2CC2)[C@@H]2CS(=O)(=O)C[C@@H]21`, the cytotoxicity at 70.5 h was -10.2%.

For `COCCN1CC2(CCCN(C(=O)NCCc3cccs3)C2)CCC1=O` (stereo unspecified), the cytotoxicity at 70.5 h was found to be 4.85%.

With `Cc1cc(C(=O)N2CCCC(c3nccn3Cc3cscn3)C2)on1` (stereo unspecified), the cytotoxicity at 70.5 h is -6.42%.

For `O=C(c1ccccn1)N1C[C@@H]2CC[C@H](C1)N(C(=O)CCC(F)(F)F)C2`, the cytotoxicity at 70.5 h is -3.18%.

Take `Cc1cccc(CN2CCC(c3nccn3CC(N)=O)CC2)n1`: the cytotoxicity at 70.5 h was determined as 22.7%.

Consider `Cc1nsc(NC(=O)NC2CCN(C)CC2)n1`, for which the cytotoxicity at 70.5 h is -11.7%.

In the case of `COc1cnc(N2C[C@@H](CN3CCOCC3)[C@@H](CO)C2)nc1`, the cytotoxicity at 70.5 h is -5.35%.

Turning to `O=C1CCCCCN1Cc1ncnn1Cc1c(F)cccc1Cl`, the cytotoxicity at 70.5 h is -5.62%.

With `CCN1CC(C(=O)N2CC(Oc3ccccc3F)C2)CC1=O` (stereo unspecified), the cytotoxicity at 70.5 h was -1.35%.

As for `COc1ccc(F)cc1C(=O)N1CCC2(CCC(=O)N(C(C)C)C2)CC1`, the cytotoxicity at 70.5 h is -5.66%.

`CCc1nc(N)nc(NCc2cnn3cccnc23)c1C`: the cytotoxicity at 70.5 h is -0.745%.

Turning to `CC(=O)N1CCN(C[C@H]2CC[C@@H](Cc3ccc4c(c3)OCO4)O2)CC1`, the cytotoxicity at 70.5 h was -1.65%.

As to `Cc1cccnc1CC(C)N(C)C(=O)c1ccoc1C` (stereo unspecified), the cytotoxicity at 70.5 h is 5.46%.

Take `Cc1noc(C)c1CN1C(=O)[C@H]2CC[C@@H]1CN(C(=O)c1cscn1)C2`: the cytotoxicity at 70.5 h was -2.09%.

As to `CSc1nccc(N2CCC3(CCCN(Cc4cccc(C)c4)C3)C2)n1` (stereo unspecified), the cytotoxicity at 70.5 h is -0.65%.

`Cc1cc(=O)[nH]c(-c2cccc(CN3CCCN4CCCC4C3)c2)n1` (stereo unspecified): the cytotoxicity at 70.5 h was -5.83%.

`CCC(C(=O)NCc1csc(-c2ncccn2)n1)n1cccn1` (stereo unspecified): the cytotoxicity at 70.5 h was determined as 13%.

`COc1ncc(C(=O)N2CCC3(CC2)C(=O)Nc2ccccc23)cn1`: the cytotoxicity at 70.5 h turned out to be 0.417%.

As for `CCS(=O)(=O)CCNC(=O)[C@@]12CNC[C@@H]1CN(C1CCCC1)C2`, the cytotoxicity at 70.5 h was -0.64%.

With `O=c1[nH]nc(CCCN2CCOCC2)n1-c1ccc(F)cc1F`, the cytotoxicity at 70.5 h was found to be 24.5%.

For the compound `CC[C@@]1(O)CCN(CCCOc2ccc(C(N)=O)cc2)C[C@H]1O`, the cytotoxicity at 70.5 h is -4.97%.
